Data from patent US20120101099A1, “HISTONE DEACETYLASE INHIBITORS” (ANTHEM BIOSCIENCES PRIVATE LIMITED, priority 2009, published 2012).

What was measured:
[1] = test system: human HDAC (Hela cells nuclear extract); assay: HDAC activity screening, Hela nuclear extract, Boc-Lys(Ac)-AMC substrate; assay type: biochemical; details: Hela nuclear extract; for HDAC % Inhibition (1 μM): 1 μM compound; for HDAC % Inhibition (10 μM): 10 μM compound; for IC50: read-out: IC50 (50% HDAC inhibitory concentration), Table 2
Description: To study the human HDAC inhibition the in-house 96 well plate assay have been established using fluorescent substrate (Boc-Lys (Ac)-AMC Substrate). Hela cells nuclear extract have been used as enzyme source.
Assay was performed in 96-well black microplate and total volume of the assay was 100 μL. Hela nuclear extract was diluted HDAC assay buffer (final concentration of 3.0 μg/mL). Enzyme mixture was made of 10 μL of diluted enzyme and 30 μL of HDAC buffer. 40 μl of enzyme mixture followed by 10 μL of test compound (final concentration from 0.01 to 10 μM) or vehicle (control) was added to each well. The plate was pre-incubated at 37° C. for 10 minutes. The HDAC reaction was started by adding 50 μl of HDAC substrate Boc-Lys (Ac)-AMC (Anaspec, Inc Fremont, Calif., USA). The plate was incubated at 37° C. for 45 minutes. The reaction was stopped by adding 50 μL of Trypsin stop solution and plate further incubated at 37° C. for 15 minutes. Measuring the fluorescence at excitation wavelength of 360 nm and emission wavelength of 460 nm monitored the release of AMC. Buffer alone and substrate alone served as blank.

NCI-H460 = assay: Cell proliferation assay (MTT); assay type: cell-based; details: Homo sapiens, Table 1, MTT, 48 hours, read-out: Cell growth inhibition (GI50 in μM) NCI H460
Description: (§1) Cells were seeded in a 96-well cell culture plates at a concentration of 10,000 cells per well and incubated at 37° C. in CO2 incubator.
(§2) Twenty-four hours later cells were treated with different concentrations (100, 10, 1, 0.1, and 0.01 μM) of compound dissolved in DMSO and incubated for 48 hours. For To measurement, 24 hours after seeding the cells, 20 μL of 3-(4.5-dimethyl-2- thiazolyl)-2,5-diphenyl-2H-tetrazolium (MTT) solution per well was added to the T0 plate and incubated for 3 hours at 37° C. in a CO2 incubator.
(§3) The plate containing cells and test compounds was treated similarly after 48 hours of incubation. After 3 hours of MTT addition, well contents were aspirated carefully followed by addition of 100 μL DMSO per well. Plates were agitated to ensure dissolution of the formazan crystals in DMSO and absorbance was read at 570 nm (A570). […] From the percentage growths a dose response curve was generated and GI50 values were interpolated from the growth curves.

HT-29 = assay: Cell proliferation assay (MTT); assay type: cell-based; details: Homo sapiens, HT-29; Table 1; MTT, 48 hours; read-out: Cell growth inhibition (GI50 in μM) HT-29
Description: as §1, §2, §3

PC-3 = assay: Cell proliferation assay (MTT); assay type: cell-based; details: Homo sapiens, PC-3; Table 1; MTT, 48 hours; read-out: Cell growth inhibition (GI50 in μM) PC-3
Description: as §1, §2, §3

GI50 (HT-29)	GI50 (PC-3)	IC50 [1]	Compound	HDAC % Inhibition (1 μM) [1]	HDAC % Inhibition (10 μM) [1]	GI50 (NCI-H460)
0.2 µM	–	–	O=C(/C=C/c1ccc(Cn2cc(-c3ccccc3)nn2)cc1)NO [Example 19]	98%	101%	3.38 µM
16.3 µM	> 100 µM	–	O=C(NO)c1ccc(Cn2cc(-c3ccc(-c4ccccc4)cc3)nn2)cc1 [Example 6, 4-(4-Biphenyl-4-yl-[1,2,3]triazol-1-ylmethyl)-N-hydroxy-benzamide]	75%	87%	> 100 µM
0.2 µM	12.2 µM	–	CN(C)c1ccc(-c2cn(Cc3cccc(/C=C/C(=O)NO)c3)nn2)cc1 [Example 23, (E)-3-{3-[4-(4-Dimethylamino-phenyl)-[1,2,3]triazol-1-ylmethyl]-phenyl}-N-hydroxy-acrylamide]	96%	99%	0.3 µM
–	–	–	O=C(NO)c1ccc(CNS(=O)(=O)Cn2cc(-c3ccccc3F)nn2)cc1 [Example 30, 4-{[4-(2-Fluoro-phenyl)-[1,2,3]triazol-1-ylmethanesulfonylamino]-methyl}-N-hydroxy-benzamide]	92%	99%	–
–	–	–	COc1ccc(-c2cn(CS(=O)(=O)NCc3ccc(C(=O)NO)cc3)nn2)cc1 [Example 32, N-Hydroxy-4-{[4-(4-methoxy-phenyl)-[1,2,3]triazol-1-ylmethanesulfonylamino]-methyl}-benzamide]	79%	91%	–
–	–	–	CN(C)c1ccc(-c2cn(CS(=O)(=O)NCc3ccc(C(=O)NO)cc3)nn2)cc1 [Example 31, 4-{[4-(4-Dimethylamino-phenyl)-[1,2,3]triazol-1-ylmethanesulfonylamino]-methyl}-N-hydroxy-benzamide]	85%	97%	–
–	–	0.0128 µM	O=C(NO)c1ccc(Cn2cc(-c3ccc(CCN4CCOCC4)cc3)nn2)cc1 [Example 12, N-Hydroxy-4-{4-[4-(2-morpholin-4-yl-ethyl)-phenyl]-[1,2,3]triazol-1-ylmethyl}-benzamide]	–	–	–
> 100 µM	–	–	O=C(/C=C/c1ccc(Cn2cc(-c3ccc(F)cc3)nn2)cc1)NO [Example 18]	98%	100%	2.21 µM
–	–	0.00733 µM	O=C(NO)c1ccc(Cn2cc(-c3ccc(CN4CCOCC4)cc3F)nn2)cc1 [Example 15, 4-[4-(2-Fluoro-4-morpholin-4-ylmethyl-phenyl)-[1,2,3]triazol-1-ylmethyl]-N-hydroxy-benzamide]	–	–	–
–	–	–	Cc1ccc(-c2cn(CS(=O)(=O)NCc3ccc(C(=O)NO)cc3)nn2)cc1 [Example 28]	84%	96%	–
0.48 µM	–	–	O=C(/C=C/c1cccc(Cn2cc(-c3cccnc3)nn2)c1)NO [Example 24, N-Hydroxy-3-[3-(4-pyridin-3-yl-[1,2,3]triazol-1-ylmethyl)-phenyl]-acrylamide]	96%	101%	10.7 µM
–	–	–	O=C(NO)c1ccc(CNS(=O)(=O)Cn2cc(-c3cccnc3)nn2)cc1 [Example 33, N-Hydroxy-4-[(4-pyridin-3-yl-[1,2,3]triazol-1-ylmethanesulfonylamino)-methyl]-benzamide]	63%	92%	–
–	–	–	O=C(NO)c1ccc(CNS(=O)(=O)Cn2cc(-c3ccc(F)cc3)nn2)cc1 [Example 29, 4-{[4-(4-Fluoro-phenyl)-[1,2,3]triazol-1-ylmethanesulfonylamino)-methyl}-N-hydroxy-benzamide]	87%	98%	–

Compound	GI50 (HT-29)	GI50 (PC-3)	IC50 [1]	HDAC % Inhibition (1 μM) [1]	HDAC % Inhibition (10 μM) [1]	GI50 (NCI-H460)
O=C(NO)c1ccc(Cn2cc(-c3ccc(CN4CCCC4)cc3F)nn2)cc1 [Example 14, 4-[4-(2-Fluoro-4-pyrrolidin-l-ylmethyl-phenyl)-[1,2,3]triazol-1-ylmethyl]-N-hydroxy-benzamide]	–	–	0.0134 µM	–	–	–
